Experimental data taken from ChEMBL document CHEMBL5465560, “Selectivity Literature for EUbOPEN Chemogenomic Library” (2024).

What was measured:
[1] = target: T1, cAMP-dependent protein kinase catalytic subunit PRKX (Homo sapiens) (UniProt P51817); assay: Selectivity interaction (KinomeScan (DiscoverX)) EUB0000045b PRKX
T1 sequence (whole entry): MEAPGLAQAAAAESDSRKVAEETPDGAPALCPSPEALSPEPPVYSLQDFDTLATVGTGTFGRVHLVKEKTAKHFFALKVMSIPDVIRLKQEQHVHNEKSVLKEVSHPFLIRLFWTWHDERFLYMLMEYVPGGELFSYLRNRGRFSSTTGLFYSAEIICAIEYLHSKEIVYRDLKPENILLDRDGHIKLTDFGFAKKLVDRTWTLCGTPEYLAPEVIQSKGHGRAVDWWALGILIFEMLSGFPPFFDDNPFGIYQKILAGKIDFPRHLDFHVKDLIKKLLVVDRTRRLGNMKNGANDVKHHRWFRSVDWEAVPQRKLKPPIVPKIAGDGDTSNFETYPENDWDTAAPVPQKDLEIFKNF

[2] = target: T2, Serine/threonine-protein kinase DCLK3 (Homo sapiens) (UniProt Q9C098); assay: Selectivity interaction (KinomeScan (DiscoverX)) EUB0001079a DCLK3; conditions: at 1 µM
T2 sequence (whole entry): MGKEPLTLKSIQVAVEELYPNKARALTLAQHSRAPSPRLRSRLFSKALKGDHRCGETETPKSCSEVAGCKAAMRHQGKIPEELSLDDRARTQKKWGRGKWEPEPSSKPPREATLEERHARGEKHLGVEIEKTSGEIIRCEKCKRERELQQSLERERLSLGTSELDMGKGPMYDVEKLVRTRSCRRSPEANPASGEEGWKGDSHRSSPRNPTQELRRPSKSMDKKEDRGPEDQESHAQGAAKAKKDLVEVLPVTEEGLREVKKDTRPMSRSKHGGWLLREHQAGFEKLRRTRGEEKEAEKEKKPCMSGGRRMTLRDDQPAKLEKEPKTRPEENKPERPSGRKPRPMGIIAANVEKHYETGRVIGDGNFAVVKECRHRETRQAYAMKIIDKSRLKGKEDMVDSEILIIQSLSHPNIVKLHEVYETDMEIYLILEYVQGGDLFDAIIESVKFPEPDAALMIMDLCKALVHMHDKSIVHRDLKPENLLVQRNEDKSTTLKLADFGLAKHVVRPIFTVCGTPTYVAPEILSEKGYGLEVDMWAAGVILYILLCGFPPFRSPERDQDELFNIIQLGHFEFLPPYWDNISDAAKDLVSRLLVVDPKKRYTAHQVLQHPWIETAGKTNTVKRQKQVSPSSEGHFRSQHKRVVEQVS

[3] = target: Ribosomal protein S6 kinase alpha-2 (Homo sapiens) (UniProt Q15349); assay: Selectivity interaction (Upstate Kinase Profiler service (Millipore)) EUB0000056c RPS6KA2; conditions: at 1 µM
Ribosomal protein S6 kinase alpha-2 (Homo sapiens), sequence (Q15349 whole entry): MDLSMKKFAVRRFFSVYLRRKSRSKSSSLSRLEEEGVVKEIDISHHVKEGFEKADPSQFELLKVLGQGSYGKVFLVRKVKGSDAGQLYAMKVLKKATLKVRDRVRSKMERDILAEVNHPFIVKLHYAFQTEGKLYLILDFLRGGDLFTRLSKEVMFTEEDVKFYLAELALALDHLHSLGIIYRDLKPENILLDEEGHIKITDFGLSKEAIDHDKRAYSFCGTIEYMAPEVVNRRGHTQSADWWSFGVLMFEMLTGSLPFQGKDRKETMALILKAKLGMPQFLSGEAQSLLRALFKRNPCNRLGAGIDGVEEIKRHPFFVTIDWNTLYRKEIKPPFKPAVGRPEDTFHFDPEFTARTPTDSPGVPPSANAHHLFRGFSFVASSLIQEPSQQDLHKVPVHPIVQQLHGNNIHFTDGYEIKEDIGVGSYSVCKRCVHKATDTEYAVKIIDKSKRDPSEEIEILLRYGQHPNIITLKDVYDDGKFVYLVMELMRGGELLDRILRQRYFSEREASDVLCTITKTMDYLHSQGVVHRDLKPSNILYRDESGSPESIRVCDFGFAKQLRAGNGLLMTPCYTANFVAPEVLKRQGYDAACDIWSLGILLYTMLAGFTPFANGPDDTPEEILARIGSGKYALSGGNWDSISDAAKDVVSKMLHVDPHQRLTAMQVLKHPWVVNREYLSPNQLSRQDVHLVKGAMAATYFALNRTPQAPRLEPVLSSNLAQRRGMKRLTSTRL

[4] = target: T3, Serine/threonine-protein kinase PLK4 (Homo sapiens) (UniProt O00444); assay: Selectivity interaction (ProQinase) EUB0000171b PLK4
T3 sequence (whole entry): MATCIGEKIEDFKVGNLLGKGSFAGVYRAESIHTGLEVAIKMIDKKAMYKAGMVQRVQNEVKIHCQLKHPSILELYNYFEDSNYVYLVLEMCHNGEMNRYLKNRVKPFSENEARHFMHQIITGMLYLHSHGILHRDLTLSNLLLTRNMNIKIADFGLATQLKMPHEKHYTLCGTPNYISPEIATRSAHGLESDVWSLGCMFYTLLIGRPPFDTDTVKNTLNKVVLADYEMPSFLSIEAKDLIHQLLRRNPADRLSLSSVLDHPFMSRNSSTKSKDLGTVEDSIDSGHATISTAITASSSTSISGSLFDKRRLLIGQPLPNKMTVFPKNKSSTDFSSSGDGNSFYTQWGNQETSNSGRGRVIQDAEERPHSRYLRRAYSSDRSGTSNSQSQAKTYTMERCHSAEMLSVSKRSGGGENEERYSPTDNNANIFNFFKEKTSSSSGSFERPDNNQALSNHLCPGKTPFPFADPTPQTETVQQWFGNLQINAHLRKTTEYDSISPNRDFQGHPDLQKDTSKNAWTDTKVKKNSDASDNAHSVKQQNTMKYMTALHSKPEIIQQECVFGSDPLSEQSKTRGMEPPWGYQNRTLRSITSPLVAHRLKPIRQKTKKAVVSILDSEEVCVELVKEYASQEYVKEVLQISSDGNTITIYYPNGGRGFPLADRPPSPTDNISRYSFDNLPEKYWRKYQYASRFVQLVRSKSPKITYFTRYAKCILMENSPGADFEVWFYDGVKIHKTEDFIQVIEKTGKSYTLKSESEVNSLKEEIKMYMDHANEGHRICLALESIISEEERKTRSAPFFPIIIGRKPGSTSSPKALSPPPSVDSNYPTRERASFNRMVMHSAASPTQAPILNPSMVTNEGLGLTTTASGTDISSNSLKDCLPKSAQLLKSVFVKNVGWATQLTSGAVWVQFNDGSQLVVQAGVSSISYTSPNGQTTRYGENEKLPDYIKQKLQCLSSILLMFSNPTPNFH

[5] = target: T4, Membrane-associated tyrosine- and threonine-specific cdc2-inhibitory kinase (Homo sapiens) (UniProt Q99640); assay: Selectivity interaction (Kinase panel (DSF assay)) EUB0001558a PKMYT1
T4 sequence (whole entry): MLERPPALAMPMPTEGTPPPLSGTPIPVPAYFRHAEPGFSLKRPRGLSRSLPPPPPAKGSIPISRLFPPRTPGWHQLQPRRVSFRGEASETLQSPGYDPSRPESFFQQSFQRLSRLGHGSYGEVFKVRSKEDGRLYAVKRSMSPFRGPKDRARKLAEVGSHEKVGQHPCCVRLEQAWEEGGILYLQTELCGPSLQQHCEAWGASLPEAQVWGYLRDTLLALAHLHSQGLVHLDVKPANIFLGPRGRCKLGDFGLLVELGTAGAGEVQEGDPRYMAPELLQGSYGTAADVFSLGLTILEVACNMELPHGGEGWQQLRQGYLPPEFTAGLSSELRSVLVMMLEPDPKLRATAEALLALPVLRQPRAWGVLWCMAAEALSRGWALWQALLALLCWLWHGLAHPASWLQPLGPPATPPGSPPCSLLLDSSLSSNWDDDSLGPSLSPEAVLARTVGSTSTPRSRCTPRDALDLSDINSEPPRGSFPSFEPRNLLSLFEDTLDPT

[6] = target: T2, Serine/threonine-protein kinase DCLK3 (Homo sapiens); assay: Selectivity interaction (KinomeScan (DiscoverX)) EUB0000618a DCLK3; conditions: at 10 µM
[7] = target: Vascular endothelial growth factor receptor 3 (Homo sapiens, UniProt P35916); assay: Selectivity interaction (Kinase panel (Invitrogen)) EUB0000639a FLT4; conditions: at 200 nM
Vascular endothelial growth factor receptor 3, sequence (P35916 whole entry): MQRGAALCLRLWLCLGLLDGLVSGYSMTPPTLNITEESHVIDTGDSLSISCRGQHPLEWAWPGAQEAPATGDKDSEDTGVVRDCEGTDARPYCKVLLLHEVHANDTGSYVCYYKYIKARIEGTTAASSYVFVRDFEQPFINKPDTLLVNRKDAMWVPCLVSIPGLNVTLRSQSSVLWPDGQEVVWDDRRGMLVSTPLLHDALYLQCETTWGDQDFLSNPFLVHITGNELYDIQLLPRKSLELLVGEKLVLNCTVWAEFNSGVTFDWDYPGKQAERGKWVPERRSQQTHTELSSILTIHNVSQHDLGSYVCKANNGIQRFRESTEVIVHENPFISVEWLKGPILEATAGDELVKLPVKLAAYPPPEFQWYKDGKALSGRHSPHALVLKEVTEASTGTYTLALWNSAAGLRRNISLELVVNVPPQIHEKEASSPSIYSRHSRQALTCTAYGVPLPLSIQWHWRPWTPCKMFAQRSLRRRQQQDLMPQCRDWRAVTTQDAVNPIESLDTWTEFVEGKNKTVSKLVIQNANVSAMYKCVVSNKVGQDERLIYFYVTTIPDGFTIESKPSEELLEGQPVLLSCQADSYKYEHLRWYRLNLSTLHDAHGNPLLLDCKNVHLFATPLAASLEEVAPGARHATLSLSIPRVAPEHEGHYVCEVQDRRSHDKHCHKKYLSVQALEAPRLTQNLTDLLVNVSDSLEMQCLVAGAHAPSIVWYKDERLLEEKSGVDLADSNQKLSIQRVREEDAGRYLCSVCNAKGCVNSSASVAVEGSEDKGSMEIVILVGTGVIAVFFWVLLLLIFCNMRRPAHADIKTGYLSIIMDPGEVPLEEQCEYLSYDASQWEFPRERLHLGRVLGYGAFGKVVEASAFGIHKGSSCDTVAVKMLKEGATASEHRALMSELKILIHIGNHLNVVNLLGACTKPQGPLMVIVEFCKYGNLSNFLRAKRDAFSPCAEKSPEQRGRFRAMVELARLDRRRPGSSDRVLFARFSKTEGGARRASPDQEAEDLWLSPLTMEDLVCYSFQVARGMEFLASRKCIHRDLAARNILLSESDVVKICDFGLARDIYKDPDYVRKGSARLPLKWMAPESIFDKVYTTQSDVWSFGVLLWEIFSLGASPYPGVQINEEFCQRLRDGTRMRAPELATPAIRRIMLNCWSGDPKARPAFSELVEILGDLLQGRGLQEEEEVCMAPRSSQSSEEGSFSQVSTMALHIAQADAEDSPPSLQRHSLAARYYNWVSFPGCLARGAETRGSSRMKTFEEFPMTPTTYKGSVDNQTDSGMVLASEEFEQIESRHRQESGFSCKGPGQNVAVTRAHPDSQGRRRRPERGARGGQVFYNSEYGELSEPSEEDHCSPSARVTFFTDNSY

Structure (SMILES): C=CC(=O)Nc1cc(-n2c(=O)ccc3cnc4ccc(-c5ccc(NS(C)(=O)=O)cc5)cc4c32)ccc1C
- % of control ([1]; at 1 µM): 77%
- % of control ([1]; at 10 µM): 74%

Structure (SMILES): Nc1cnc(N2CCc3cc(S(=O)(=O)Nc4c(F)cc(Cl)cc4F)cc(N4CCCC4=O)c32)nc1 [TP-020n]
- % of control [2]: 85%

Structure (SMILES): Cc1ccc(-c2ccc3c(ccc4sc5c(c43)NC[C@@H](C)NC5=O)n2)cn1
- % of inhibition [3]: 49%

Structure (SMILES): C=CC(=O)Nc1cccc(C(=O)Nc2ccc(Nc3cc(-c4[nH]c(SC)nc4C)ccn3)cc2)c1
- % of control ([4]; at 1 µM): 77%
- % of control ([4]; at 5 µM): 57%

Structure (SMILES): CC(C)(O)[C@H](F)CN1Cc2cc(NC(=O)c3cnn4cccnc34)c(N3CCOCC3)cc2C1=O
- dTM [5]: 0.5 K

Structure (SMILES): O[C@H]1CC[C@H](Nc2ncc3nc(Nc4c(F)cc(F)cc4F)n([C@H]4CCOC4)c3n2)CC1
- % of control [6]: 98%

Structure (SMILES): CC[C@@H]1[C@H](F)C(=O)N[C@@H]1COc1nccc2cc(C(N)=O)c(OC)cc12 [ZIMLOVISERTIB]
- % of inhibition [7]: 0.591%
